From patent USRE37886E1, “1-(1,2-Disubstituted piperidinyl)-4-substituted piperazine derivatives” (Janssen Pharmaceuticals, N.V., priority 1995, dated 2002)

How the values were obtained:
[1] = test system: substance P induced plasma extravasation; assay: Antagonism of substance P induced plasma extravasation in guinea-pigs; assay type: in vivo; conditions: lowest active dose, female guinea-pigs; for LAD nose: compound 1 hour prior to substance P (2 mg/kg, femoral artery), blue colouring of nose 10 minutes after challenge; for LAD conjunctiva / LAD forepaws / LAD trachea / LAD urinary bladder: compound 1 hour prior to substance P; for LAD conjunctiva: blue colouring of conjunctiva 10 minutes after challenge; for LAD forepaws: blue colouring of forepaws 10 minutes after challenge; for LAD trachea: blue colouring of trachea 30 minutes after challenge; for LAD urinary bladder: blue colouring of urinary bladder 30 minutes after challenge
Text: (§1) The compounds of the present invention are potent inhibitors of neurokinin-mediated effects, in particular those mediated via the NK1 receptor, and may therefore be described as tachykinin antagonists, especially as substance P antagonists, as indicated in vitro by the antagonism of substance P induced relaxation of pig coronary arteries which is described hereinafter. The binding affinity of the present compounds for the human, guinea-pig and gerbil neurokinin receptors may be determined in vitro in a receptor binding test using ^3H-substance-P as radioligand. The subject compounds also show substance-P antagonistic activity in vivo as may be evidenced by, for instance, the antagonism of substance P-induced plasma extravasation in guinea-pigs, or the antagonism of drug-induced emesis in ferrets (Watson et al., Br. J. Pharmacol. 115, 84-94, 1995).
Antagonism of substance P induced plasma extravasation in guinea-pigs
Plasma extravasation was induced by injection of substance P (2 mg/kg) in the femoral artery of female guinea-pigs. Evans Blue dye (30 mg/kg) was injected simultaneously. The test compound or solvent was administered 1 hour prior to substance P injection. 10 minutes after challenge, the aminals were checked for blue colouring (a direct measure for plasma extravasation) of the nose, the forepaws, and the conjectiva. 30 minutes after challenge, the animals were sacrificed by CO2 gas inhalation and checked for blue colouring of the trachea and the urinary bladder. […]

[2] = test system: substance-P induced relaxation of the pig coronary arteries; assay: Antagonism of substance-P induced relaxation of the pig coronary arteries; assay type: cell-based; conditions: concentration at which 50% of the response to 10^−9 M substance P was inhibited, 30 minutes incubation, prostaglandin F2a precontracted segments
Text: as §1
Antagonism of substance-P induced relaxation of the pig coronary arteries
Segments of coronary artieries taken from pigs (killed by injection of an overdose of sodium pentobarbital) were inverted and mounted for recordign of isometric tension in organ baths (volume 20 ml) with the endothelium at the outside. The preparations were bathed in Krebs-Henseleit solution. The solution was kept at 37° C. and gassed with a mixture of O2/CO2 (95/5). After stabilisation of the preparations, prostaglandin F2a (10^−5 M) was administered to induce a contraction. This was repeated until contractivle responses became stable. Then prostaglandin F2a was again administered and substance P(3×10^−10 M and 10^−9 M cumulatively) was added. Substance P induced endothelium dependent relaxations. After washing away the agonists, a known concentratin of a compound of formula (I) was added. After an incubation period of 30 minutes, prostaglandin F2a ([…]) and the same concentrations of sbustance P as described above were again administered in the presence of the compound to be tested. Relaxations caused by substance P were expressed as relaxations under control conditions, and percent inhibition of the response to […] substance P was taken as a measure of the antagonistic activity of the compound to be tested. Table 6 lists the IC50 values (concentration at which 50% of the response to […] substance P was inhibited by the test compound) for the tested compounds.

Row | Structure (SMILES) | LAD nose [1] [mg/kg] | LAD conjunctiva [1] [mg/kg] | LAD forepaws [1] [mg/kg] | LAD trachea [1] [mg/kg] | LAD urinary bladder [1] [mg/kg] | IC50 [2] [nM] | IC50 ([2]; Sus scrofa, 0.5 h) [nM]
1 | Cc1cc(C)cc(C(=O)N2CCC(N3CCN(C(c4ccccc4)c4ccccc4)CC3)CC2Cc2ccccc2)c1 (racemic) [Compound 12] | >40.0 | >40.0 | >40.0 | >40 | 40.0 |  | 
2 | O=C(c1cc(C(F)(F)F)cc(C(F)(F)F)c1)N1CCC(N2CCN(c3nc4ccccc4[nH]3)CC2)CC1Cc1ccccc1 (racemic) [Compound 40] | 10.0 | 10.0 | 10.0 | >40 | >40 |  | 
3 | Cc1cc(C)cc(NC(=O)CN2CCN(C3CCN(C(=O)c4cc(C(F)(F)F)cc(C(F)(F)F)c4)C(Cc4ccccc4)C3)CC2)c1 (racemic) [Compound 47] | 40.0 | 40.0 | 40.0 | >40 | >40 |  | 
4 | Cc1cccc(C)c1NC(=O)CN1CCN(C2CCN(C(=O)c3cc(C(F)(F)F)cc(C(F)(F)F)c3)C(Cc3ccccc3)C2)CC1 (racemic) [Compound 58] |  |  |  |  |  | 0.24 | 
5 | O=C(c1cc(C(F)(F)F)cc(C(F)(F)F)c1)N1CCC(N2CCCN(Cc3ccccc3)CC2)CC1Cc1ccccc1 (racemic) [Compound 63] |  |  |  |  |  | 8.38 | 
6 | Cc1cccc(C)c1NC(=O)CN1CCCN(C2CCN(C(=O)c3cc(C(F)(F)F)cc(C(F)(F)F)c3)C(Cc3ccccc3)C2)CC1 (racemic) [Compound 65] |  |  |  |  |  | 6.39 | 
7 | CCOCCn1c(NC(=O)CN2CCN(C3CCN(C(=O)c4cc(C(F)(F)F)cc(C(F)(F)F)c4)C(Cc4ccccc4)C3)CC2)nc2ccccc21 (racemic) [Compound 69] |  |  |  |  |  | 1.57 | 
8 | NC(=O)c1cc(Cl)c(NC(=O)CN2CCN([C@@H]3CCN(C(=O)c4cc(C(F)(F)F)cc(C(F)(F)F)c4)[C@@H](Cc4ccccc4)C3)CC2)c(Cl)c1 (racemic) [Compound 74] | 10.0 | 10.0 | 10.0 | >40 | >40 |  | 
9 | CC(C)NC(=O)CN1CCN(C2CCN(C(=O)c3cc(C(F)(F)F)cc(C(F)(F)F)c3)C(Cc3ccccc3)C2)CC1 (racemic) [Compound 76] |  |  |  |  |  | 14.1 | 
10 | CC(=O)NCC(c1ccccc1)N1CCN(C2CCN(C(=O)c3cc(C(F)(F)F)cc(C(F)(F)F)c3)C(Cc3ccccc3)C2)CC1 (racemic) [Compound 82] | 2.50 | 2.50 | 2.50 | 10.0 | >40 |  | 
11 | CC(=O)NCC(c1ccccc1)N1CCN(C2CCN(C(=O)c3cc(C(F)(F)F)cc(C(F)(F)F)c3)C(Cc3ccccc3)C2)CC1 (racemic) [Compound 83] | 0.63 | 2.50 | 0.63 | >40 | 0.63 |  | 
12 | O=C(c1cc(C(F)(F)F)cc(C(F)(F)F)c1)N1CCC(N2CCN(CC(O)c3ccccc3)CC2)CC1Cc1ccccc1 (racemic) [Compound 86] |  |  |  |  |  | 2.13 | 
13 | O=C(O)C=CC(=O)O.O=C(O)C=CC(=O)O.O=C(c1cc(C(F)(F)F)cc(C(F)(F)F)c1)N1CCC(N2CCN(CCc3ccccc3)CC2)CC1Cc1ccccc1 (racemic) [Compound 90] | 10.0 | 10.0 | 10.0 | 10.0 | >40 |  | 
14 | CN(CC(CCN1CCN(C2CCN(C(=O)c3cc(C(F)(F)F)cc(C(F)(F)F)c3)C(Cc3ccccc3)C2)CC1)c1ccc(Cl)c(Cl)c1)C(=O)c1ccccc1 (racemic) [Compound 92] |  |  |  |  |  | 0.78 | 
15 | CN(CC(CCN1CCN([C@H]2CCN(C(=O)c3cc(C(F)(F)F)cc(C(F)(F)F)c3)[C@@H](Cc3ccccc3)C2)CC1)c1ccc(Cl)c(Cl)c1)C(=O)c1ccccc1 (mixture of isomers) [Compound 93, (±)-cis-N-[4-[4-[1-[3,5-bis(trifluoromethyl)benzoyl]-2-(phenylmethyl)-4-piperidinyl]-1-piperazinyl]-2-(3,4-dichlorophenyl)butyl]-N-Methylbenzamide (E)-2-butenedioate (1:2)] |  |  |  |  |  |  | 4.99
16 | CCn1nnn(CCN2CCN(C3CCN(C(=O)c4cc(C(F)(F)F)cc(C(F)(F)F)c4)C(Cc4ccccc4)C3)CC2)c1=O.O=C(O)C=CC(=O)O.O=C(O)C=CC(=O)O (racemic) [Compound 96] | 10.0 | 10.0 | 10.0 | >40 | >40 |  | 
17 | O=C(CN1CCN(C2CCN(C(=O)c3cc(C(F)(F)F)cc(C(F)(F)F)c3)C(Cc3ccccc3)C2)CC1)Nc1nccn1Cc1ccccc1 (racemic) [Compound 97] |  |  |  |  |  | 1.58 | 
18 | O=C(CN1CCN(C2CCN(C(=O)c3cc(C(F)(F)F)cc(C(F)(F)F)c3)C(Cc3ccccc3)C2)CC1)C1CCc2ccccc21 (racemic) [Compound 99] |  |  |  |  |  | 1.46 | 
19 | Cc1cccc(C)c1NC(=O)C(c1ccccc1)N1CCN(C2CCN(C(=O)c3cc(C(F)(F)F)cc(C(F)(F)F)c3)C(Cc3ccccc3)C2)CC1 (racemic) [Compound 102] |  |  |  |  |  | 1.85 | 
20 | Cc1cccc(C)c1NC(=O)CCN1CCN(C2CCN(C(=O)c3cc(C(F)(F)F)cc(C(F)(F)F)c3)C(Cc3ccccc3)C2)CC1.O=C(O)C=CC(=O)O.O=C(O)C=CC(=O)O (racemic) [Compound 103] | 2.50 | 2.50 | 2.50 | 10.0 | 2.50 |  | 
21 | Cc1cccc2c1N(C(=O)CN1CCN(C3CCN(C(=O)c4cc(C(F)(F)F)cc(C(F)(F)F)c4)C(Cc4ccccc4)C3)CC1)CC2 (racemic) [Compound 104] |  |  |  |  |  | 0.3 | 
22 | Cc1cc(C)cc(C(=O)NCCN2CCN(C3CCN(C(=O)c4cc(C(F)(F)F)cc(C(F)(F)F)c4)C(Cc4ccccc4)C3)CC2)c1 (racemic) [Compound 115] |  |  |  |  |  | 2.23 | 
23 | O=C(c1cc(C(F)(F)F)cc(C(F)(F)F)c1)N1CCC(N2CCN(c3cccc(C(F)(F)F)c3)CC2)CC1Cc1ccccc1 (racemic) [Compound 120] |  |  |  |  |  | 0.82 | 
24 | O=C(CN1CCN(C2CCN(C(=O)c3cc(C(F)(F)F)cc(C(F)(F)F)c3)C(Cc3ccccc3)C2)CC1)N1Cc2ccccc2C1 (racemic) [Compound 121] |  |  |  |  |  | 2.77 | 
25 | O=C(CN1CCN(C2CCN(C(=O)c3cc(C(F)(F)F)cc(C(F)(F)F)c3)C(Cc3ccccc3)C2)CC1)N1Cc2ccccc2C1 (racemic) [Compound 122] |  |  |  |  |  | 1.68 | 
26 | Cc1cccc(C)c1NC(=O)CN1CCN(C2CCN(C(=O)c3cc(C(F)(F)F)cc(C(F)(F)F)c3)C(Cc3ccccc3)C2)CC1 (single isomer, unassigned) [Compound 124] |  |  |  |  |  | 0.06 | 
27 | Cc1cc(C)cc(C(=O)N2CCC(N3CCN(CC(=O)Nc4c(C)cccc4C)CC3)CC2Cc2ccccc2)c1 (stereo not drawn) [Compound 5] |  |  |  |  |  | 4.61 | 
28 | Cc1cc(C)cc(C(=O)N2CCC(N3CCN(CC=Cc4ccccc4)CC3)CC2Cc2ccccc2)c1 (stereo not drawn) [Compound 8] | 10.0 | 10.0 | 10.0 | >40 | >40 |  | 
29 | O=C(c1ccco1)N1CCN(C2CCN(C(=O)c3cc(C(F)(F)F)cc(C(F)(F)F)c3)C(Cc3ccccc3)C2)CC1 (stereo not drawn) [Compound 21] | 10.0 | 10.0 | 10.0 | >40 | 10.0 |  | 
30 | Cc1ncc(Cn2c(N3CCN(C4CCN(C(=O)c5cc(C(F)(F)F)cc(C(F)(F)F)c5)C(Cc5ccccc5)C4)CC3)nc3ccccc32)o1 (stereo not drawn) [Compound 23] | 10.0 | 40.0 | 10.0 | >40 | >40 |  | 
